Laboratory results taken from PubChem BioAssay AID1794830.
Records with an inconclusive call do not appear.

Target: Solute carrier family 2, facilitated glucose transporter member 1 (Homo sapiens) (UniProt P11166)
Assay: SLC2A1-mediated glucose transport in cells – cell-based, flow cytometry, glucose FRET sensor, HEK293 JumpIN TRex, wild type, dose response (AID 1794830)
Settings: HEK293 JumpIN SLC2A1-OE

Solute carrier family 2, facilitated glucose transporter member 1 (Homo sapiens), sequence (P11166 whole entry, looked up): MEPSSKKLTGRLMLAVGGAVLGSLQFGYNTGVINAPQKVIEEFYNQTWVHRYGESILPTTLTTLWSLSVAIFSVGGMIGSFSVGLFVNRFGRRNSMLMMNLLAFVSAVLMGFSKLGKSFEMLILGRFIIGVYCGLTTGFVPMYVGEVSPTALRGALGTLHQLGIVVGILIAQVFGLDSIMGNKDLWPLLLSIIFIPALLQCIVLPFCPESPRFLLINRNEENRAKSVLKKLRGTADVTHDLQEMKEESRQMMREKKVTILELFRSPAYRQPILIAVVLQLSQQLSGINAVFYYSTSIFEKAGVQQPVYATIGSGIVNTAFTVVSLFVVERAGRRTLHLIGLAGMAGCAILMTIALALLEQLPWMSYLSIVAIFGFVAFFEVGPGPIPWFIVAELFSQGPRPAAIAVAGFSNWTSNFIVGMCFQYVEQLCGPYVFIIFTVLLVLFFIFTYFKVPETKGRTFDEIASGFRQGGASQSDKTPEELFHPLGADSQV

EC50 (substrate transport, FRET signal increase): 527 µM
Structure (SMILES): OC[C@H]1OC(O)[C@H](O)[C@@H](O)[C@@H]1O (stereo partly specified)
